Patent US20110294728A1, “Antiviral Polypeptides” (priority 2008, published 2011)
Like-named read-outs stand apart in the source and are kept apart here. Where no end group is shown, it is not given here.

Assays:
[1] = molecular target: T1, HIV-1 RT (Human immunodeficiency virus type 1 group M subtype B, UniProt P03366); experiment: biochemical
T1 construct: The heterodimeric p66/p51 RT was eluted with an imidazole gradient; p66 and p51 derived from p66 by proteolytic cleavage of the C-terminal RNAse H domain; made in house; host or cells: E. coli (M15 for the His-tagged subunits)
Experimental: RNA-dependent-DNA RT-polymerase activity was measured in a standard reaction assay using poly(rA)-(dT)15 as template/primer as described in Restle et al. (1990). Ten microliters of reverse transcriptase (RT) at 20 nM was incubated at 37° C. for 30 min with 20 μL of reaction buffer (50 mM Tris, pH 8.0, 80 mM KCl, 6 mM MgCl2, 5 mM DTT, 0.15 μM poly(rA-dT), 15 μM dTTP, 0.3 μCi 3H-dTTP). For peptide evaluation, HIV-1 RT was incubated with increasing concentrations of peptide inhibitors for […], and polymerase reaction was initiated by adding reaction buffer. Reactions were stopped by precipitation of nucleic acids with 5 ml of 20% trichloroacetic acid (TCA) solution for 2 h on ice, then filtered using a multiwell-sample collector (Millipore), and washed with 5% TCA solution. Filters were dried at 55° C. for 30 min and radionucleotide incorporation was determined by liquid scintillation spectrometry.
A series of peptides have been derived from Pep-A sequence (SEQ ID NO: 28), which is derived from HIV-1 reverse transcriptase. First, P1 peptide (SEQ ID NO: 1) was obtained by removing the N-terminal arginine of Pep-A. Then, additional peptides were generated by performing an alanine scan on P1. P1-derived peptides were evaluated using a standard polymerase RT assay. Reported data correspond to the mean of three separate experiments.

[2] = tested on: HeLa cells; experiment: Cellular uptake of FITC-labelled peptide, fluorescence microscopy; type: cell-based; settings: for entry of free peptide into cells: peptide alone, without Pep-1
Experimental: HeLa cells were cultured in Dulbecco's modified Eagle's medium (DMEM) supplemented with 10% fetal calf serum at 37° C. in a humidified atmosphere containing 5% CO2.). H9 cell lines (ATCC number: HTB-176) were stably transfected with pNL4.3 V−R+plasmid (AIDS Research Reference Reagent Program, National Institutes of Health (NIH), USA) and therefore expressed in a constitutive manner all HIV-1 proteins but Env encoded proteins. They were cultured in RPMI-1640 medium supplemented with 2 mM glutamine, 10% (w/v) foetal calf serum (FCS), 1% antibiotics (streptomycin […], penicillin, 10 000 IU/ml), as well as G418 1 mg/ml. Cells were grown on glass coverslips to 75% confluency, then transfected with pcDNA3-p66RT plasmid (this plasmid contains the 66 subunit of HIV-1 Reverse Transcriptase cloned in pcDNA3.1 (+) vector (Invitrogen, USA), using HindIII and BamHI restriction site) using Lipofectamine 2000 reagent according to manufacturer' instructions (Invitrogen). Hela cells were subsequently cultured for 32 h, before incubation with FITC-PAW or FITC-PAW/Pep-1 (complex obtained at a molar ratio 1/10) for 1 h. Coverslips were extensively rinsed with PBS and cells were fixed in 4% paraformaldehyde for […] and permeabilized in 0.2% Triton. After saturation in PBS supplemented with bovine serum albumine 1% for 1 h, cells were incubated overnight with monoclonal 8C4 anti-HIV-1 RT antibody (AIDS Research Reference Reagent Program, NIH) (diluted 1:100 in PBS-BSA 1%), followed by Alexa-555 anti-mouse (Molecular Probes).
Immunofluorescence detection of HIV-1 RT and FITC-PAW was performed by epifluorescence microscopy using a PL APO 1.4 oil PH3 objective on a LEICA DMRA 1999 microscope. 3D reconstitution of the 20 frames realized from z stacking was performed using Imaris 6.0 software.
Cells were grown on acid-treated glass coverslips to 60% confluence. Once rinsed with PBS, cells were overlaid with preformed complexes and incubated for 40 minutes at 37° C. Cells were then rinsed twice with PBS and fixed […] at Room Temperature) (RT° in Paraformaldehyde 4%, and washed three times in PBS+2% BSA. They were then permeabilised by incubation 10 min RT° in PBS+0.5% Triton X-100, washed again 3 times in PBS+2% BSA. After blocking 20 min in the same solution, the coverslips were placed in a humid chamber, overlaid with 75 μl of primary antibody against Integrase, and incubated for 2 h at 37° C. Coverslips were then rinced once with PBS and incubated with 75 μl of anti rabbit antibody diluted 1/10000 in PBS. After immobilisation on the cover using Prolong Gold antifade reagent, cellular localization of Integrase as well as FITC-labelled peptides was monitored by fluorescence microscopy, using a PL APO 1.4 oil PH3 objective on a LEICA DMRA 1999 microscope. […]

[3] = molecular target: T2, heterodimeric RT (Human immunodeficiency virus type 1 group M subtype B, UniProt P03366); experiment: Steady-state fluorescence titration of FITC-PAW with RT; set-up: species or system HIV-1; settings: 200 nM FITC-PAW titrated with RT; read-out: dissociation constant (Kd), binding to heterodimeric RT
T2 construct: The heterodimeric p66/p51 RT was eluted with an imidazole gradient; p66 and p51 derived from p66 by proteolytic cleavage of the C-terminal RNAse H domain; made in house; host or cells: E. coli (M15 for the His-tagged subunits)
Experimental: (§1) Fluorescence experiments were performed in buffer containing 50 mM Tris-HCl, pH 8.0, 50 mM KCl, 10 mM MgCl2 and 1 mM DTT, at 25° C., using a SPEX-PTI spectrofluorimeter in a 1 cm path-length quartz cuvette, with a band-pass of 2 nm for excitation and emission, respectively. Excitation was performed at 492 nm and emission spectra were recorded from 500 to 600 nm. According fluorescence experiments, a fixed concentration of FAM-labelled (19/36) p/t (50 nM) or of FITC-PAW (200 nM) was titrated with increasing protein concentrations from 5 nM to 1 μM. Data were fitted as described in Agopian et al. (2007) and Rittinger et al. (1995), using a quadratic equation (GraFit, Erithacus Software).

[4] = molecular target: T3, RT:p/t (Human immunodeficiency virus type 1 group M subtype B, UniProt P03366); experiment: Steady-state fluorescence titration, PAW binding to RT:p/t; set-up: species or system HIV-1
T3 construct: The heterodimeric p66/p51 RT was eluted with an imidazole gradient; p66 and p51 derived from p66 by proteolytic cleavage of the C-terminal RNAse H domain; made in house; host or cells: E. coli (M15 for the His-tagged subunits)
Experimental: as §1

[5] = molecular target: T4, HIV-1 p51 (Human immunodeficiency virus type 1 group M subtype B, UniProt P03366); experiment: Size exclusion chromatography of p51 dimerization; settings: p51 3.5 μM, FITC-labelled PAW 20 μM, 1 h
T4 construct: His; made in house; host or cells: E. coli M15
Experimental: Chromatography was performed using one (Phenomenex 53000) or two HPLC columns in series (Phenomenex 53000 followed by Phenomenex 52000; both 7.5 mm×300 mm). Samples containing 3 to 10 μM of RT or p51 were applied onto one or two HLPC columns and eluted with 200 mM potassium phosphate (pH: 7.0) at a flow rate of 0.5 ml·min^−1 (5).

[6] = molecular target: T5, HIV-1 integrase (Human immunodeficiency virus type 1 group M subtype B, UniProt P04585); experiment: IN 3′-processing activity, gel-electrophoresis procedure; type: biochemical; settings: read-out: IC50 3′-proc
T5 construct: Integrase is a 32 kDA viral protein that is biologically active under a multimeric form
Experimental: In order to verify the influence of the fluorescent probe attached to PAW on the peptide-integrase interaction, a standard gel-electrophoresis procedure (as described in Smolov et al., 2006) was carried out to examine the IN 3′-processing activity as a function of either unlabeled or fluorescein-labeled PAW concentration.

[7] = molecular target: T6, HIV-1 RT (Human immunodeficiency virus type 1 group M subtype B, UniProt P12497); experiment: RT pull-down with peptide-CNBr Sepharose beads, H9 cell lysates; type: binding; settings: Western blotting
T6 construct: asymmetric heterodimer that consists of two subunits, p66 and p51; expressed in transfected cells; host or cells: H9 cells (ATCC HTB-176) stably transfected with pNL4.3 V-R+
Experimental: For RT pull down experiments, PAW (SEQ ID NO: 18) was incubated with 500 μl of activated CNBr-activated Sepharose 4B beads at 4° C. overnight. After centrifugation, supernatants were removed and the beads were incubated with Glycine pH.8.0 for 2 hrs at 4° C. with gentle stirring. The beads were then washed with 0.1 M sodium acetate buffer (pH 4.0), then 0.5 M Bicarbonate buffer, and finally in PBS, three times each. The peptide bound to the beads were then saturated for 30 min in PBS/BSA 0.1% and then incubated for 1 h at 4° C. with equal amounts of H9 cells lysed for […] on ice in Lysis buffer (Tris 20 mM, pH 7.2, NaCl 400 mM, EDTA 1 mM, DTT 1 mM, Protease inhibitors EDTA free) and sonicated 2×5 sec. at 20%. Beads were washed with Lysis buffer then twice with PBS and the bound proteins were finally separated on 15% SDS-PAGE gel and analyzed by Western Blotting using monoclonal 8C4 anti-HIV-1 RT antibody.

[8] = molecular target: T7, HIV-1 integrase (Human immunodeficiency virus type 1 group M subtype B, UniProt P12497); experiment: Integrase pull-down with CNBr Sepharose beads; type: binding; settings: H9 or HeLa HA-IN cell lysates, western blotting
T7 construct: expressed in transfected cells; host or cells: H9 cells with pNL4.3 V-R+; HeLa cells stably expressing HA-tagged IN
Experimental: Peptides were resuspended in buffer A (1 mg/ml), sonicated 4 min, and incubated with 500 μl (gel volume) of activated CNBr-activated Sepharose 4B sepharose© beads at 4° C. overnight. After centrifugation, supernatants were removed and the beads were incubated with Glycine pH.8 for 2 hours at 4° C. with gentle stirring. The sedimented Sepharose beads were then washed in 0.1 M Sodium Acetate buffer (pH 4), 0.5 M Bicarbonate buffer, and finally in PBS, three times each. The peptides bound to the beads were then saturated for 30 minutes in PBS BSA 0.1% and then incubated for 1 h at 4° C. with equal amounts of cell lysate (H9 or Hela-IN) prealably lysed for 30 min on ice in Lysis buffer (Tris 20 mM, pH 7.2, NaCl 400 mM, EDTA 1 mM, DTT 1 mM, Protease inhibitors EDTA free (Roche Diagnostics) and sonicated twice for 5 sec. at 20%. Beads were washed once in Lysis buffer, and twice in PBS. They were finally resuspended in Laemli blue, migrated on 15% SDS-PAGE gels and analysed by Western Blotting.

[9] = tested on: uninfected PHA-P-activated PBMC; experiment: Cytotoxicity, MTT assay in uninfected PBMC; type: cell-based
Experimental: The anti-HIV activities of the peptides were assayed according to the methods described in Roisin et al. (2004). Phytohemagglutinin-P(PHA-P)-activated peripheral blood mononuclear cells (PBMC) treated by increasing concentrations of peptide (from 100 to 0.1 nM), one hour later, were infected with hundred 50% tissue culture infectious doses (TCID50) per 100,000 cells of the HIV-1-LAI strain (Barre-Sinoussi et al., 1983). This virus was amplified in vitro on PHA-P-activated PBMC. Viral stock was titrated using PHA-P-activated PBMC, and 50% TCID50 were calculated using Kärber's formula (Kärber, 1931). Samples were maintained throughout the culture, and cell supernatants were collected at day 7 post-infection and stored at −20° C. Viral replication was measured by quantifying reverse transcriptase (RT) activity in cell culture supernatants. In parallel, cytotoxicity of the compounds was evaluated in uninfected PHA-P-activated PBMC by colorimetric 3-(4-5 dimethylthiazol-2-yl)2,5diphenyl tetrazolium bromite (MTT) assay on day 7 (as described in Mossmann, 1983). Experiments were performed in triplicate and repeated with another blood donor. […]

[10] = molecular target: T1, HIV-1 RT; experiment: RT dissociation kinetics with bis-ANS, stopped flow; settings: read-out: dissociation rate constant kdis of RT
Experimental: Dissociation kinetics of HIV-1 RT were monitored by using 4,4′-Bis(1-anilinonaphthalene 8-sulfonate (bis-ANS) as extrinsic probe. Changes in bis-ANS fluorescence provide a good signal to probe variation in the exposure of the hydrophobic regions associated to RT dissociation in a time-dependent manner. 0.5 μM of RT was dissociated in presence of 0.8 μM of bis-ANS, by adding 10% acetonitrile in the absence or in the presence of 10 μM PAW. Kinetics of dissociation were monitored by following fluorescence resonance energy transfer between tryptophan residues of RT and bis-ANS. Excitation of RT-Trp residues was performed at 290 nm and the increase of bis-ANS fluorescence emission at 490 nm was detected through a 420 nm cut-off filter. Data acquisition and analysis were performed using KinetAsyst 3 software (Hi-Tech Scientific, Salisbury, England-UK) and traces were fitted according to a single exponential equation.

What does the source list for GTKWLTEWIPLTAEAEC-FITC [PAW-FITC]?
Ki ([1]; Dixon plot, mean of three separate experiments, read-out: Ki (μM), inhibition of polymerase activity of HIV-1 RT): 2.7 ± 0.7 µM; reduction of efficiency (higher Ki) relative to PAW ([1]; relative to PAW): 3.8 fold; time to enter cells ([2]; complexed with Pep-1 at 1/10 molar ratio): less than 1 h; entry of free peptide into cells [2]: poorly enters; Kd [3]: 33 ± 10 nM; lower Kd of labelled FITC-PAW over unlabelled peptide [4]: 5.6 fold; Kd ([4]; FITC-PAW fluorescence quenching, read-out: Kd, FITC-PAW binding to RT first incubated with DNA/DNA p/t): 7.1 ± 2.8 nM; increase of affinity for RT in the presence of p/t ([4]; relative to RT without p/t): 5 fold; p51 dimeric and associated to PAW [5]: 4.6%; IC50 [6]: 10000 nM

What does the source list for GTKALTAVIPLTEEAE [Peptide P8]?
Ki [1]: 57 ± 19 µM; reduction of efficiency of the peptide in comparison to P1 ([1]; relative to P1): 8 fold; stable complex with RT, retention of RT on beads [7]: no RT was associated; entry of free peptide into cells [2]: not able to enter cells alone

How did the “interaction with IN in pull-down” value [8] turn out when “Pep-7: decapeptide (SEQ ID NO: 32) mimicking p66/p51 interface that prevents reverse transcriptase-dimerization (KETWETWWTE; Pep-7 ; described in Morris et al., 1999, JBC, 274, 24941-24946)” was run?
The value was “does not bind IN”.

With GTKWLTEWIPLTAEAE-NH2 [PAW] as the substance, how does the toxic effect [9] read?
The toxic effect was “without any toxic effect”.

What about the “entry of free peptide into cells” value [2] of the same substance?
Its value is “not able to enter cells alone”.

And the koff [10]?
The koff was 1.42 ± 0.007 s⁻¹.
